Results published in publication PMC11901902, “Design, Synthesis, and Cytotoxicity Evaluation of Novel Indolin-2-One Based Molecules on Hepatocellular Carcinoma HepG2 Cells as Protein Kinase Inhibitors” (Molecules, 2025).
Where two headings read alike, the source gives them in different places.

Key:
[1] = system: HepG-2 cells; assay: MTT cytotoxicity assay on HepG-2 cells; format: cell-based, human; settings: Homo sapiens, HepG2; for viability at 1.25 µM: HepG-2, 1.25 µM; for viability at 1.25 µM / viability at 2.5 µM / viability at 5 µM / viability at 10 µM / viability at 20 µM / viability at 40 µM / viability at 80 µM / viability at 160 µM: Table S1; for viability at 2.5 µM: HepG-2, 2.5 µM; for viability at 5 µM: HepG-2, 5 µM; for viability at 10 µM: HepG-2, 10 µM; for viability at 20 µM: HepG-2, 20 µM; for viability at 40 µM: HepG-2, 40 µM; for viability at 80 µM: HepG-2, 80 µM; for viability at 160 µM: HepG-2, 160 µM; for IC50: MTT, 24 h treatment, mean of three experiments ± SEM
Protocol: (§1) Cytotoxic activity of the synthesized compounds was evaluated against HepG-2 and MCF-7 cancer cell lines using the MTT assay. The tested cell lines were obtained from the American Type Culture Collection (ATCC, […], USA) through the Tissue Culture Unit, The Egyptian Organization for Biological Products and Vaccines (Vacsera, Giza, Egypt). Indirubin, chemicals, and solvents were purchased from Sigma-Aldrich (St. Louis, MO, USA). The cells were grown on RPMI-1640 medium supplemented with 10% inactivated fetal calf serum and 50 µg/mL gentamycin. The cells were maintained at 37 °C in a humidified atmosphere with 5% CO2 and were sub-cultured two to three times per week. For antitumor assays, the tumor cell lines were suspended in the medium at concentration 5 × 10^4 cell/well in Corning® 96-well tissue culture plates (Corning, Corning, NY, USA), then incubated for 24 h. The tested molecules were then added to 96-well plates (six replicates) to achieve six concentrations for each compound. Six vehicle controls with media or 0.5% DMSO were run for each 96-well plate as a control. After incubating for 24 h, the numbers of viable cells were determined by the MTT test. Briefly, the media was removed from the 96 well plate and replaced with 100 µL of fresh culture RPMI 1640 medium without phenol red then 10 µL of the 12 mM MTT stock solution (5 mg of MTT in 1 mL of PBS) to each well including the untreated controls. The 96-well plates were then incubated at 37 °C and 5% CO2 for 4 h. An 85 µL aliquot of the media was removed from the wells, and 50 µL of DMSO was added to each well, mixed thoroughly with the pipette, and incubated at 37 °C for 10 min. Then, the optical density was measured at 590 nm with the microplate reader (SunRise, TECAN, Inc., Morrisville, NC, USA) to determine the number of viable cells, and the percentage of viability was calculated as […], where ODt is the mean optical density of wells treated with the tested sample and ODc is the mean optical density of untreated cells. The relation between surviving cells and drug concentration was plotted to obtain the survival curve of each tumor cell line after treatment with the specified compound. […] Each concentration was repeated four times.

[2] = system: MCF-7 cells; assay: MTT cytotoxicity assay on MCF-7 cells; format: cell-based; settings: Homo sapiens, MCF7; for viability at 1.25 µM: MCF-7, 1.25 µM; for viability at 2.5 µM: MCF-7, 2.5 µM; for viability at 5 µM: MCF-7, 5 µM; for viability at 10 µM: MCF-7, 10 µM; for viability at 20 µM: MCF-7, 20 µM; for viability at 40 µM: MCF-7, 40 µM; for viability at 80 µM: MCF-7, 80 µM; for viability at 160 µM: MCF-7, 160 µM
Protocol: as §1

[3] = molecular target: T1, VEGFR-2 (Homo sapiens, UniProt P35968); assay: Kinase-Glo Plus luminescence kinase inhibition assay, VEGFR-2; format: biochemical; settings: 10 µM ATP, 30 °C, 40 min; mean ± SEM
T1 construct: purchased BPS Bioscience 40301
Protocol: (§2) The enzyme inhibition assay for the tested molecules was performed at BPS Bioscience Corporation, San Diego, CA, USA. The following materials served as the enzyme sources, Poly (Glu, Tyr) sodium salt (4:1, Glu:Tyr) (Sigma#P7244) served as the standardized substrate, and the Kinase-Glo Plus Luminescence kinase assay kit (Promega # V3772) was used. […] Glo Plus luminescence kinase assay kits. The assays were performed using Kinase-Glo Plus luminescence (Promega Corporation, Madison, WI, USA).
(§3) The tested molecules 9, 20, and indurbin were diluted to 100 µL in DMSO (10%), and 5 µL of the solution was added to a 50-µL enzyme reaction until the final concentration of DMSO was 1% in all of reactions. The enzymatic reactions were conducted at 30 °C for 40 min. The reaction mixture contained enzyme substrate and respective kinases. After the enzymatic reaction, 50 µL of enzyme-Glo Plus luminescence […] assay solution (Promega) was added to each reaction, and the plate was incubated for 5 min at room temperature. The luminescence signal was measured using a BioTek Synergy 2 microplate reader. The luminescence data were analyzed using the computer software GraphPad Prism. The difference between luminescence intensities in the absence of enzyme (Lut) and in the presence of enzyme (Luc) was defined as 100% activity (Lut − Luc). […] The IC50 value was determined using GraphPad Prism software. […]
(§4) Glo Plus luminescence kinase assay kits were used in these assays. […] The assay measures kinase activity by quantitating the amount of ATP remaining in the solution following kinase reaction. […] After the enzymatic reaction, 50 µL of Kinase-Glo Plus Luminescence kinase assay solution (Promega) was added to each reaction, and the plate was incubated for 5 min at room temperature. The luminescence signal was measured using a BioTek Synergy 2 microplate reader. […] The luminescence data were analyzed using the Graphpad Prism software.

[4] = molecular target: T2, EGFR (Homo sapiens, UniProt P00533); assay: Kinase-Glo Plus luminescence kinase inhibition assay, EGFR; format: biochemical; settings: 10 µM ATP, 30 °C, 40 min; mean ± SEM
T2 construct: purchased BPS Bioscience 40721
Protocol: as §2, §3, §4

[5] = molecular target: T3, CDK-2 (Homo sapiens, UniProt P24941); assay: Kinase-Glo Plus luminescence kinase inhibition assay, CDK-2; format: biochemical; settings: 10 µM ATP, 30 °C, 40 min; mean ± SEM
T3 construct: purchased BPS Bioscience 41101
Protocol: as §2
The tested molecules 9, 20, and indurbin were diluted to 100 µL in DMSO (10%), and 5 µL of the solution was added to a 50-µL enzyme reaction until the final concentration of DMSO was 1% in all of reactions. The enzymatic reactions were conducted at 30 °C for 40 min. The reaction mixture contained enzyme substrate and respective kinases. After the enzymatic reaction, 50 µL of enzyme-Glo Plus luminescence […] assay solution (Promega) was added to each reaction, and the plate was incubated for 5 min at room temperature. The luminescence signal was measured using a BioTek Synergy 2 microplate reader. The luminescence data were analyzed using the computer software GraphPad Prism. The difference between luminescence intensities in the absence of enzyme (Lut) and in the presence of enzyme (Luc) was defined as 100% activity (Lut − Luc). The values of enzyme activity percentages versus five concentrations of the small molecule were then plotted using a non-linear regression analysis of the sigmoidal dose–response curve. The IC50 value was determined using GraphPad Prism software. All experiments were repeated three times (Table S3).
Glo Plus luminescence kinase assay kits were used in these assays. The assay was done at Bioscience Laboratory BPS, California, USA. The assay measures kinase activity by quantitating the amount of ATP remaining in the solution following kinase reaction. The luminescent signal from the assay was correlated with the amount of ATP present and inversely correlated with kinase activity. […] All of the enzymatic reactions were conducted at 30 °C for 40 min. The reaction mixture contained 40 mM Tris, pH 7.4, 10 mM MgCl2, 0.1 mg/mL BSA, 1 mM DTT, 10 µM ATP, Kinase substrate, and VEGFR-2, EFGR, CDK-2 and CDK-4 enzymes. After the enzymatic reaction, 50 µL of Kinase-Glo Plus Luminescence kinase assay solution (Promega) was added to each reaction, and the plate was incubated for 5 min at room temperature. The luminescence signal was measured using a BioTek Synergy 2 microplate reader. Kinase activity assays were performed in triplicate for each concentration. The luminescence data were analyzed using the Graphpad Prism software.

[6] = molecular target: T4, CDK-4 (Homo sapiens, UniProt P11802); assay: Kinase-Glo Plus luminescence kinase inhibition assay, CDK-4; format: biochemical; settings: 10 µM ATP, 30 °C, 40 min; mean ± SEM
T4 construct: purchased BPS Bioscience 79674
Protocol: as §2, §3, §4

[7] = system: HepG2 cells; parameters: method as in PMID 34208562; settings: relative to sunitinib; cited from earlier work
[8] = MTT, 24 h treatment, mean of three experiments ± SEM, read-out: IC50 (µM) MCF-7

T2 sequence (P00533 25-1210): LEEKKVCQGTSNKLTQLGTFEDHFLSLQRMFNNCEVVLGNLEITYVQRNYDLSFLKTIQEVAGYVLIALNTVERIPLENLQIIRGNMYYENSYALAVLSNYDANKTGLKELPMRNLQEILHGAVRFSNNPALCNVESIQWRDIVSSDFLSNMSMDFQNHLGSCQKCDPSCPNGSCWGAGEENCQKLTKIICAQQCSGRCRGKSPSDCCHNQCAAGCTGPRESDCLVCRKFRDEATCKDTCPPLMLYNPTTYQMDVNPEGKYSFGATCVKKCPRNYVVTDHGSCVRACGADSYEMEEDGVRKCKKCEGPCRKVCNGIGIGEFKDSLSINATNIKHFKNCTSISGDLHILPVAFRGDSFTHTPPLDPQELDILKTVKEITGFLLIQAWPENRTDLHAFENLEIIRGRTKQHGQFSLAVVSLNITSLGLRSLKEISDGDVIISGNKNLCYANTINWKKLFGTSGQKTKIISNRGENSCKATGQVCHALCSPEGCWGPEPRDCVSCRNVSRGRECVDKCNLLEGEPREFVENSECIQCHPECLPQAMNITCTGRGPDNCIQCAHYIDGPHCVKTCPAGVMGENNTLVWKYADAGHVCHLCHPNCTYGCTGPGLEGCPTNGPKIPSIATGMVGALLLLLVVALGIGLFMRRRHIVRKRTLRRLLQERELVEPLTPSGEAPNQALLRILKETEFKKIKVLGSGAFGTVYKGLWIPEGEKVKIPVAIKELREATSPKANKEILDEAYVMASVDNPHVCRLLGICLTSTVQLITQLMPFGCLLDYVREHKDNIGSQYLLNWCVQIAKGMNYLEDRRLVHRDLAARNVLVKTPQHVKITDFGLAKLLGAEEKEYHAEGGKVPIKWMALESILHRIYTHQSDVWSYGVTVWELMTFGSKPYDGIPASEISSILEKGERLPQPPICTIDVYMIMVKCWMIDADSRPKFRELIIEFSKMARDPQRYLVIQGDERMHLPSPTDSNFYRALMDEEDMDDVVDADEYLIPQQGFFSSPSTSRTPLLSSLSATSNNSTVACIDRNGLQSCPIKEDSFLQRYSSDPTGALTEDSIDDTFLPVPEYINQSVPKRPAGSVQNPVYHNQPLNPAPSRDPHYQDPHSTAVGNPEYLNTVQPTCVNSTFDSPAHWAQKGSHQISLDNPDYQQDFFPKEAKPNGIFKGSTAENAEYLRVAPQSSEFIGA
T4 sequence (P11802 whole entry): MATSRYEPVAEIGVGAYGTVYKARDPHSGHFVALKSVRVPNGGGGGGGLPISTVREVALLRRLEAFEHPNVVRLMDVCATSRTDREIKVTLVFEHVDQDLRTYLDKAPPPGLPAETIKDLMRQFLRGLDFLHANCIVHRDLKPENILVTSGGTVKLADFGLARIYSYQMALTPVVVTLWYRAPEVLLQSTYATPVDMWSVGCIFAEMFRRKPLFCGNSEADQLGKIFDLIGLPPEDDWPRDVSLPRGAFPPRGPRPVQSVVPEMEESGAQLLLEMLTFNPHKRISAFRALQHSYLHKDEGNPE
T4 sequence (P30281 whole entry partner): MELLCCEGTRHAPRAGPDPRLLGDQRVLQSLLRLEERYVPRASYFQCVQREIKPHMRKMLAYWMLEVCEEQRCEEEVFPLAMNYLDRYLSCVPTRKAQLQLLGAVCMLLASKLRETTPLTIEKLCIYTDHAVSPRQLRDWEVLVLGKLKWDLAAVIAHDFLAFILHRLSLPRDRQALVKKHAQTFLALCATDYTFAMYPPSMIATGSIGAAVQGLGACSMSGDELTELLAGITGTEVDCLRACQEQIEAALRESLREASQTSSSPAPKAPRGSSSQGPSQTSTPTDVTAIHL
T1 sequence (P35968 20-1356): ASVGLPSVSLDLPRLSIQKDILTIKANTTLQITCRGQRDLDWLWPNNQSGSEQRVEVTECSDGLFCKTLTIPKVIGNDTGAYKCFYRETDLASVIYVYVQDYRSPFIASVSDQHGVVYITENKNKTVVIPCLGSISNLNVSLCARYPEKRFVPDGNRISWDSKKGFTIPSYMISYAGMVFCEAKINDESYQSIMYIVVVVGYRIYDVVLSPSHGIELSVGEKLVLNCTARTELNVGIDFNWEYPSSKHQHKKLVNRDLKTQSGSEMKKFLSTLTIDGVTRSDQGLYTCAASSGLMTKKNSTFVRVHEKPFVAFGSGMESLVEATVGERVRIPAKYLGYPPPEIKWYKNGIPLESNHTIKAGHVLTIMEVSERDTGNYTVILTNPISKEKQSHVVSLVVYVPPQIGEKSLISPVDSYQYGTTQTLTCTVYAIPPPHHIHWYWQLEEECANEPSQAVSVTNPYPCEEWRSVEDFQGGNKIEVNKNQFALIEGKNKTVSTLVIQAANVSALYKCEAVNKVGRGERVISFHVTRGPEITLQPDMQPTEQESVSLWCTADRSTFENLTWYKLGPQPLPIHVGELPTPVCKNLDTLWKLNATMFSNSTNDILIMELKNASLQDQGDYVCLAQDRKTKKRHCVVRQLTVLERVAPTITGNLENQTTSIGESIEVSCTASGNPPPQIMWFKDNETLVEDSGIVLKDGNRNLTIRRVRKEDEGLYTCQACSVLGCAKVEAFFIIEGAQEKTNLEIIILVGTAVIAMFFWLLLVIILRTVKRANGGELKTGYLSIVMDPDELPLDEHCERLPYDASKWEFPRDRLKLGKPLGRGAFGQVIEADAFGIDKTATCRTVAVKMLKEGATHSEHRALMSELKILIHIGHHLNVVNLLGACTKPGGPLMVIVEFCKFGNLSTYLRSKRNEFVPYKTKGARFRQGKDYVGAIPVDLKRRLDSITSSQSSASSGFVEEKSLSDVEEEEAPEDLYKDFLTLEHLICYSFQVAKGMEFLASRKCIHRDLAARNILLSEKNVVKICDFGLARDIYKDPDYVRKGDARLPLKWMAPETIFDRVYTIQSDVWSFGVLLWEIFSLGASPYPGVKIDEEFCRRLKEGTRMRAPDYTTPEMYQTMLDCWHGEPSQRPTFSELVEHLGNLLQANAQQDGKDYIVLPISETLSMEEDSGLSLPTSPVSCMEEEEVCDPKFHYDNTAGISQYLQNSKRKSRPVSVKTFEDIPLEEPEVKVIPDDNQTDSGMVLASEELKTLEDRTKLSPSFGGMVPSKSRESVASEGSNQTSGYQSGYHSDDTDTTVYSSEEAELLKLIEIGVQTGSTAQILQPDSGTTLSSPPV

Structure (SMILES) | viability at 1.25 µM [1] [%] | viability at 2.5 µM [1] [%] | viability at 5 µM [1] [%] | viability at 10 µM [1] [%] | viability at 20 µM [1] [%] | viability at 40 µM [1] [%] | viability at 80 µM [1] [%] | viability at 160 µM [1] [%] | IC50 [1] [µM] | viability at 1.25 µM ([2]; Table S2) [%] | viability at 2.5 µM ([2]; Table S2) [%] | viability at 5 µM ([2]; Table S2) [%] | viability at 10 µM ([2]; Table S2) [%] | viability at 20 µM ([2]; Table S2) [%] | viability at 40 µM ([2]; Table S2) [%] | viability at 80 µM ([2]; Table S2) [%] | viability at 160 µM ([2]; Table S2) [%] | IC50 [2, 8] [µM] | further results
O=C1Nc2ccc([N+](=O)[O-])cc2C1=Nc1ccc2nc[nH]c(=O)c2c1 [Compound 11, 6-(5-Nitro-2-oxo-1,2-dihydro-indol-3-ylideneamino)-3H-quinazolin-4-one] | 99.2 ± 6.9 | 91.3 ± 7.9 | 89.4 ± 6.4 | 79.5 ± 5.5 | 67.1 ± 3.8 | 54.6 ± 1.9 | 44.1 ± 1.3 | 37.6 ± 1.1 | 20.9 ± 1.54 | 116 ± 6.4 | 97.5 ± 7 | 90.1 ± 6.4 | 86 ± 5.5 | 63.9 ± 3.8 | 39.1 ± 2.9 | 25.6 ± 1.3 | 11.2 ± 0.4 | 72.4 ± 6.51 | –
O=C1Nc2ccccc2/C1=C1/Nc2ccccc2C1=O [Ind, Indirubin, reference compound] | – | – | – | – | – | – | – | – | 6.92 ± 0.65 | – | – | – | – | – | – | – | – | 6.12 ± 0.35 | IC50 [3]: 126 ± 20 nM; IC50 [4]: 175 ± 18.3 nM; IC50 [5]: 45.6 ± 2.24 nM; IC50 [6]: 23.6 ± 2.15 nM
Cc1cc(C)c(/C=C2\C(=O)Nc3ccccc32)[nH]1 [Semaxanib] | – | – | – | – | – | – | – | – | – | – | – | – | – | – | – | – | – | – | fold more cytotoxic activity than sunitinib [7]: 3 fold
O=C1Nc2ccc(Br)cc2C1=Nc1ccc2nc[nH]c(=O)c2c1 [Compound 10, 6-(5-Bromo-2-oxo-1,2-dihydro-indol-3-ylideneamino)-3H-quinazolin-4-one] | 91.2 ± 7 | 87.9 ± 8.1 | 83 ± 5.2 | 71.4 ± 4.5 | 58.7 ± 4.3 | 35.8 ± 2.1 | 19.4 ± 1.2 | 14.2 ± 0.9 | 28.1 ± 2.08 | 98.3 ± 7.4 | 99.1 ± 6.9 | 87.2 ± 5.7 | 76.5 ± 4 | 65.2 ± 2.8 | 55.4 ± 2.6 | 41.2 ± 2.8 | 25.4 ± 2.6 | > 100 | IC50 ([2]; Table S2, read-out: IC50 (µM) on MCF-7 cell line): 112 ± 11.2 µM
